According to paper PMC6272711, “5-Methoxyquinoline Derivatives as a New Class of EZH2 Inhibitors” (Molecules, 2015):
Entries after “also recorded” stand apart in the source; their conditions may differ. Read-outs that look alike come from different tables or passages of the source.

What was measured:
MDA-MB-231 = assay: MTT cell growth inhibition, MDA-MB-231; format: cell-based; conditions: Homo sapiens, MDA-MB-231, 96 h, read-out: IC50 MDA-MB-231
SMYD3 = target: T1, SMYD3 (Homo sapiens, UniProt Q9H7B4); assay: Enzyme selectivity assay, SMYD3; format: biochemical; conditions: means of at least three measurements
T1 sequence (Q9H7B4 1-428): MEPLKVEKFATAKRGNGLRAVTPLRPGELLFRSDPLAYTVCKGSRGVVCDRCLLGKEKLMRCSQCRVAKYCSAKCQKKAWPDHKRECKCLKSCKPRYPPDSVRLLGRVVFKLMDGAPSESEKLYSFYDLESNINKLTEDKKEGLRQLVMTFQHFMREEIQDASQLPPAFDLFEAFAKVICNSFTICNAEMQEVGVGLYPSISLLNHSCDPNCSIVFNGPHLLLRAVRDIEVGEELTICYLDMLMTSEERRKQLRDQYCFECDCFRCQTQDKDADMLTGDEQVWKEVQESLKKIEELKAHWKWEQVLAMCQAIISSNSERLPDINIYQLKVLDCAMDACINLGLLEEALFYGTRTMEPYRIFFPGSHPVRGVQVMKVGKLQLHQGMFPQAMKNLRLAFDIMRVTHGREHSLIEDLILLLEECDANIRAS

HCT15 = assay: MTT cell growth inhibition, HCT15; format: cell-based, human; conditions: means of at least three measurements
SUV39H1 = target: T2, SUV39H1 (Homo sapiens, UniProt O43463); assay: Enzyme selectivity assay, SUV39H1; format: biochemical; conditions: means of at least three measurements
T2 sequence (O43463 1-412): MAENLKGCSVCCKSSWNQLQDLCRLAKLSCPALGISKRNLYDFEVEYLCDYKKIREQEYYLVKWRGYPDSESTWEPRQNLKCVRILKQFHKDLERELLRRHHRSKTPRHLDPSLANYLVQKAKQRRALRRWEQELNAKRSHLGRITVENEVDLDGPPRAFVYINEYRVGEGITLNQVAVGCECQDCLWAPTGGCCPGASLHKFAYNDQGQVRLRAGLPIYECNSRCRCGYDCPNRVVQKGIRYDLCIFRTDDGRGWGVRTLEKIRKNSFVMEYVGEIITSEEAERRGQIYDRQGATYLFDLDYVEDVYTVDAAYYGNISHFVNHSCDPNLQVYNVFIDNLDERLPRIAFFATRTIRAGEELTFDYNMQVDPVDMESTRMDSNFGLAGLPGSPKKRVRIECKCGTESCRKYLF

G9a = target: T3, G9a (Homo sapiens, UniProt Q96KQ7); assay: Enzyme selectivity assay, G9a; format: biochemical; conditions: means of at least three measurements
T3 sequence (Q96KQ7 1-1210): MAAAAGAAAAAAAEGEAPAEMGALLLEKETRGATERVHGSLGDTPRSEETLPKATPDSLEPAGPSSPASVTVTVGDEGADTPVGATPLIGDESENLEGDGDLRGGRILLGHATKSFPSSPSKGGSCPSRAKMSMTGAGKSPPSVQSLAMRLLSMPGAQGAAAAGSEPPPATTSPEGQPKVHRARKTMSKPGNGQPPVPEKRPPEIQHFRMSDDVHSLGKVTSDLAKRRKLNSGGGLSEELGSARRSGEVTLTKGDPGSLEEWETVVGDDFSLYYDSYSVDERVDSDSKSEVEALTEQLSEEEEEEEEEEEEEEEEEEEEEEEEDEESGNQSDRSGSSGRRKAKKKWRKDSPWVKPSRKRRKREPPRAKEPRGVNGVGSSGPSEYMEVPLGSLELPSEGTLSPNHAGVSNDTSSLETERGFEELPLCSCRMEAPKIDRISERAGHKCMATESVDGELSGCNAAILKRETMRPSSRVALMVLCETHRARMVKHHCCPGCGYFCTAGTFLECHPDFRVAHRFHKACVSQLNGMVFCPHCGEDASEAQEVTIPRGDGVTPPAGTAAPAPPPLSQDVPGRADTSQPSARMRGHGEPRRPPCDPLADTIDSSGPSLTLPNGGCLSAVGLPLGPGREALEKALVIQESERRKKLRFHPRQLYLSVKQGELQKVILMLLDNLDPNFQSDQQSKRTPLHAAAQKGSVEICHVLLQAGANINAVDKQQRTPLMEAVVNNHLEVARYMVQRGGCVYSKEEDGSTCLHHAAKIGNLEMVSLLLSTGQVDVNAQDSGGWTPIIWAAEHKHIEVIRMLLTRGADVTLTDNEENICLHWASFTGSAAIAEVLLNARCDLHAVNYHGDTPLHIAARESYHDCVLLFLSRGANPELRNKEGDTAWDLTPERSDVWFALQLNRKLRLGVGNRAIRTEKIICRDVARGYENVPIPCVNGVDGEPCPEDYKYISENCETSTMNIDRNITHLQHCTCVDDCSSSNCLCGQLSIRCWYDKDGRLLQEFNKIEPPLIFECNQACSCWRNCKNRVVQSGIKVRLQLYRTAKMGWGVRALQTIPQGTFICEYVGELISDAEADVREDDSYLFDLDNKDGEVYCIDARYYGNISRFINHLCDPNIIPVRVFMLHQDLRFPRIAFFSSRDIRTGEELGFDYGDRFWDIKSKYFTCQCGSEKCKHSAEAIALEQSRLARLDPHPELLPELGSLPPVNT

PRMT1 = PRMT1 (Homo sapiens, UniProt Q99873); assay: Enzyme selectivity assay, PRMT1; format: biochemical; conditions: means of at least three measurements
Sequence of PRMT1 (Q99873 whole entry, species assumed): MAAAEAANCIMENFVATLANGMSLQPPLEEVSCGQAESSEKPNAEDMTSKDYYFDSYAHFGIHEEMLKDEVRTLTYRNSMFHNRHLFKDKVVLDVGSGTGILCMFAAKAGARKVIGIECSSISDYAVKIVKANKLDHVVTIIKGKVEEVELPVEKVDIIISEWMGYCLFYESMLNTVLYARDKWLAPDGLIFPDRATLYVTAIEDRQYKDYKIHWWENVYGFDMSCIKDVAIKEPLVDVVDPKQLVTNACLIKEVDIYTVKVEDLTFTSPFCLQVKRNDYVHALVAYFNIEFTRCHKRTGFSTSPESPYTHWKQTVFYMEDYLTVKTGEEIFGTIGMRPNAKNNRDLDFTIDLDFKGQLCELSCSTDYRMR

SETD8 = target: T4, SETD8 (Homo sapiens, UniProt Q9NQR1); assay: Enzyme selectivity assay, SETD8; format: biochemical; conditions: means of at least three measurements
T4 sequence (Q9NQR1 1-393): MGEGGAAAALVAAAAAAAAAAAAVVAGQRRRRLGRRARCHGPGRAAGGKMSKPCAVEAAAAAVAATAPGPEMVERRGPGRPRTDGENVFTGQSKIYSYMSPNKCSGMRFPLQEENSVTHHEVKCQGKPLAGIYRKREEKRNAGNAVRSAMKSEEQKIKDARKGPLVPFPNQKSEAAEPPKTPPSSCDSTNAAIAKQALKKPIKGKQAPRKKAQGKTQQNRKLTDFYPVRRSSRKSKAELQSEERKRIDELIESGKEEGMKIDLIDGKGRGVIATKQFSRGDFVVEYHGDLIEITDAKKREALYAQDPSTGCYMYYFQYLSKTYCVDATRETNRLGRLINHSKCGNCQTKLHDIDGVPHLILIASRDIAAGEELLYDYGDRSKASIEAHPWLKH

[1] = test system: H3K27me3 level in MDA-MB-231 cell line; assay: Western blotting assay of H3K27me3 status; format: cell-based, human; conditions: MDA-MB-231 cells, treatment for 72 h, western blot, total H3 loading control
Experimental: The main catalytic activity of EZH2 is methylating histone 3 lysine 27 (H3K27), so evaluation of H3K27me3 was conducted through a western blotting assay.
Figure 3 Analysis of H3K27 methylation in MDA-MB-231 cell line treated with 1 and 5k. Evaluation of H3K27me3 following treatment for 72 h. Total H3 is shown as a loading control.
The western blotting assay of H3K27 status was performed as previously described.

SETDB1 = SETDB1 (Homo sapiens, UniProt Q15047); assay: Enzyme selectivity assay, SETDB1; format: biochemical; conditions: means of at least three measurements
EZH2 = EZH2 (Homo sapiens, UniProt Q15910); assay: AlphaLISA assay for EZH2; format: biochemical; conditions: enzymatic assay; means of at least three measurements
Sequence of EZH2 (Q15910 whole entry): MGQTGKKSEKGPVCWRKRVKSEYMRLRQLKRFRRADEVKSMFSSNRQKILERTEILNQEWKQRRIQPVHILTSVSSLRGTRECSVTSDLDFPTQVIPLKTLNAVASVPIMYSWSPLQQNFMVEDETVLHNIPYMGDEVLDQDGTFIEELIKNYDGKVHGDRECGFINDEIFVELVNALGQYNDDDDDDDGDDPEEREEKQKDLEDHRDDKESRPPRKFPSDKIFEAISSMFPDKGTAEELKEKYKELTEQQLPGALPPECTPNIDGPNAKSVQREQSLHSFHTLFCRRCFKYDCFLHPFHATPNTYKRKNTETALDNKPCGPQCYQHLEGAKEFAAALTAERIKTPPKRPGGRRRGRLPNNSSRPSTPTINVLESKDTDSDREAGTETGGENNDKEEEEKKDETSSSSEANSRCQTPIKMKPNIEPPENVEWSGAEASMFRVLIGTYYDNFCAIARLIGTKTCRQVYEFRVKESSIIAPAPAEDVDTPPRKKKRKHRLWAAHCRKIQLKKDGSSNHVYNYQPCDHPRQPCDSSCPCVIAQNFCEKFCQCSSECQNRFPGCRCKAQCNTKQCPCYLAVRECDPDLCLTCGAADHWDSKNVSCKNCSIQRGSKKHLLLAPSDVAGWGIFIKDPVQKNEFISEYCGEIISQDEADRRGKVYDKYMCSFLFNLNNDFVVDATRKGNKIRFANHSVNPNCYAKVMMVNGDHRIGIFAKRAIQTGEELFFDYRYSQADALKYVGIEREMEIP
Sequence of EZH2 (O75530 whole entry partner): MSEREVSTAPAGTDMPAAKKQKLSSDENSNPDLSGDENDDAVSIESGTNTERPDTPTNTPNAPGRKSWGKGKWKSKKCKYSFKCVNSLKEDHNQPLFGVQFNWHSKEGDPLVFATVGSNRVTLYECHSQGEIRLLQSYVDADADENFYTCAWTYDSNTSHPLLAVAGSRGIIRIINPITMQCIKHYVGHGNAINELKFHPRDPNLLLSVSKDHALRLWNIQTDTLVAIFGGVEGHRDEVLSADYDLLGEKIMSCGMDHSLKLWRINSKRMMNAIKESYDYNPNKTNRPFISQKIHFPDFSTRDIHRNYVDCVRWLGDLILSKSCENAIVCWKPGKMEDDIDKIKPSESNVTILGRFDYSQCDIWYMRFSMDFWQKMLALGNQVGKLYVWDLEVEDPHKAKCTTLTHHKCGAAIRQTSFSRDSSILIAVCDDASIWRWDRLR
Sequence of EZH2 (Q15022 whole entry partner): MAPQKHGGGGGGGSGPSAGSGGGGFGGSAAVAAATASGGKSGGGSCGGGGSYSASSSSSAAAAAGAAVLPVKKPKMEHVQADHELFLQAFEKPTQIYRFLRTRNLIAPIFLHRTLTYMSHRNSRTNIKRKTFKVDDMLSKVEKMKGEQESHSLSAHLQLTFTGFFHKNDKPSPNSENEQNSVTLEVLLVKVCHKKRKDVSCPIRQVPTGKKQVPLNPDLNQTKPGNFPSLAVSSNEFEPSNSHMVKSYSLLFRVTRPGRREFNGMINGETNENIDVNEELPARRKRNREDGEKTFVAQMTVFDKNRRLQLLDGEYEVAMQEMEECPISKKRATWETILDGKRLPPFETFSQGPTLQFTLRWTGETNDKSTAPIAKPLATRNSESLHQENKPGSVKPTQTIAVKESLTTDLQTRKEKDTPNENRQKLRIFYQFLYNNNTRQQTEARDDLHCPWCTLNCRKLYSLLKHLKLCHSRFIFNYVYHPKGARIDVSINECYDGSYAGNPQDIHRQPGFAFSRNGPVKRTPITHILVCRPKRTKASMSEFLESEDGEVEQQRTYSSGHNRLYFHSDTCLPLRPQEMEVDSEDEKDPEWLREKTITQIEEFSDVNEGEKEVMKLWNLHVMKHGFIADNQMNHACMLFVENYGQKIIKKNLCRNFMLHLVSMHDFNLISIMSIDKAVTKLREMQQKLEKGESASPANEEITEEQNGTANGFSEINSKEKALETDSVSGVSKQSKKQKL

[2] = Homo sapiens, HCT-15, 96 h, read-out: IC50 HCT15, MTT, treatment 96 h

COc1cccc2nc(N3CCCN(C)CC3)cc(NC3CCN(C)CC3)c12 [Compound 5k, 5-Methoxy-2-(4-methyl-1,4-diazepan-1-yl)-N-(1-methylpiperidin-4-yl)quinolin-4-amine]
IC50 (MDA-MB-231): 2.45 ± 0.24 µM
IC50 (SMYD3): 35.4 ± 1.97 µM
IC50 (HCT15; [2]): 5.6 µM
IC50 (HCT15; read-out: IC50 HCT15, MTT, treatment 96 h): 7.6 ± 0.46 µM
IC50 (SUV39H1): 21.2 ± 0.28 µM
IC50 (G9a): 82.6 ± 2.23 µM
IC50 (PRMT1): 28.8 ± 1.25 µM
IC50 (SETD8): 40 ± 2.71 µM
H3K27me3 level [1]: decreased global H3K27me3 level in cells; also recorded: obviously down-regulated
IC50 (SETDB1): 27 ± 1.36 µM

COc1ccc(Nc2cc(N3CCCN(C)CC3)nc3cccc(OC)c23)cc1 [Compound 5m, 5-Methoxy-N-(4-methoxyphenyl)-2-(4-methyl-1,4-diazepan-1-yl)quinolin-4-amine]
IC50 (MDA-MB-231): > 20 µM
IC50 (HCT15; [2]): 18.9 ± 1.97 µM
IC50 (EZH2): 19.7 ± 2.56 µM

COc1cc(OC)c2c(NC3CCN(C)CC3)cc(N3CCCN(C)CC3)nc2c1 [Compound 9e, 5,7-Dimethoxy-2-(4-methyl-1,4-diazepan-1-yl)-N-(1-methylpiperidin-4-yl)quinolin-4-amine]
IC50 (MDA-MB-231): 12.5 ± 0.62 µM
IC50 (HCT15; [2]): 10.6 ± 0.83 µM
IC50 (EZH2): 6.7 ± 0.36 µM

COc1cccc2nc(N3CCCN(C)CC3)cc(NC3CCN(C(C)C)CC3)c12 [Compound 5i, N-(1-Isopropylpiperidin-4-yl)-5-methoxy-2-(4-methyl-1,4-diazepan-1-yl)quinolin-4-amine]
IC50 (MDA-MB-231): 15.7 ± 1.27 µM
IC50 (HCT15; [2]): > 20 µM
IC50 (EZH2): 17.4 ± 1.07 µM
